Several values for one entry are separate records, joined by “and”; a condition that tells them apart may be missing. Equal values may be shown once. Read-outs that look alike come from different tables or passages of the source. Where no end group is shown, it is not given here. [ ]: non-standard residue; d: D form. The star is where a group is joined. FITC = O=C1OC2(c3ccc(O)cc3Oc3cc(O)ccc32)c2ccc(NC(=S)*)cc21; Ahx = NCCCCCC(=O)O

The text below walks through data of patent US20090118135A1, “METHODS AND COMPOUNDS FOR REGULATING APOPTOSIS” (The Burnham Institute, priority 2007, published 2009).

Test [1] concerns the target T1, GST-Bcl-B (Homo sapiens, UniProt Q9HD36).
T1 sequence (Q9HD36 1-182 limits assumed): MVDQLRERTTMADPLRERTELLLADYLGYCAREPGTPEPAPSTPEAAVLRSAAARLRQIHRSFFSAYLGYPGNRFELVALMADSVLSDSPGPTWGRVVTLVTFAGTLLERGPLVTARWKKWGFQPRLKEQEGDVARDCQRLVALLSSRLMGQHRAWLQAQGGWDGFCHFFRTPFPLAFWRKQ
Kind of test: Bcl-B/FITC-TR3-r8 fluorescence polarization competition (displacement) assay, HTS and dose-response. The settings on record: for Bcl-B H Coefficient: Hill coefficient of Bcl-B dose-response curve. In general terms: Polarisation of emitted light reports the rotation of a fluorescent probe.

Test [2] has as its target GST-Bcl-2 (Homo sapiens, UniProt P10415). Kind of test: biochemical.
In test [3] the target is T1, GST-Bcl-B. Kind of test: biochemical.
Test [4] has as its system HeLa Tet-On-Bcl-B (HTO2) cells. Kind of test: Cell viability (ATPlite) in HeLa Tet-On-Bcl-B cells with or without doxycycline. The conditions noted are these: for IC50: Homo sapiens, HeLa, 24 h, read-out: concentration required to reduce HeLa Tet-On-Bcl-B cell viability by 50%. Type of test: cell-based. The protocol:
(§1) FIG. 24A is a photograph of a blot wherein HeLa Tet-On (HTO1) and HeLa Tet-On-Bcl-B (HTO2) cells were treated with or without doxycycline (dox) for 24 h to induce their tetracycline-responsive promoters. Protein lysates were collected, and immunoblotting was used to analyze Bcl-B and Hsc70 (for loading control) expression. In FIG. 24B the cells were treated with or without doxycycline for 24 h, and then with staurosporine at the indicated concentrations for 24 h. Cell viability was measured using ATPlite. In FIG. 24C HeLa Tet-On-Bcl-B (HTO2) cells were treated with or without doxacycline as above. Compounds were then added at the indicated concentrations, and cell viability was measured 24 h later using ATPlite. The data shown represent mean±standard deviation (n=3).
HeLa Tet-On-Bcl-B cells were generated by stably transfecting the HeLa Tet-On cell line (Clontech, Mountain View, Calif.) with a pTRE2hyg vector (Clontech) containing the Bcl-B gene, using lipofectAMINE PLUS (Invitrogen, Carlsbad, Calif.). Briefly, cells were seeded overnight and transfected at 50% confluency for 3 h. After 24 h, the cells were re-seeded at <10% confluence and cultured in media (DMEM with 10% Tet System Approved FBS (Clontech)) containing G418 (100 μg/mL) and hygromycin B (300 μg/mL) for pTet-On and pTRE2hyg/Bcl-B plasmid maintenance, respectively. Positive foci resistant to both antibiotics were expanded. Colonies were then cultured in the presence or absence of doxycycline (Clontech, 1 μg/mL) for 16 h, and induced Bcl-B expression was confirmed by Western blot analysis. A previously developed polyclonal Bcl-B antibody^17 and an Hsc70 antibody (for protein concentration comparison; Santa Cruz Biotechnology, Santa Cruz, Calif.) were used.
(§2) Cells were seeded in 96-well plates at 5,000 cells/well in 100 μL of growth medium and allowed to incubate for 24 h. Afterwards, cells were incubated in the presence or absence of doxycycline (1 μg/mL) for another 24 h (to induce Bcl-B expression). Compounds were then added, as indicated, in a volume of 5 μL. The next day, cell viability was measured using the ATPlite Luminescence ATP Detection System (PerkinElmer, Waltham, Mass.) according to the manufacturer's specifications.
Background: In ATP-based viability assays light output follows the ATP content of the culture.

The target in test [5] is T2, GST (Schistosoma japonicum, UniProt P08515).
T2 construct: made in house; host or cells: Escherichia coli BL21 Star (DE3), pGEX-4T-1
T2 sequence (P08515 whole entry): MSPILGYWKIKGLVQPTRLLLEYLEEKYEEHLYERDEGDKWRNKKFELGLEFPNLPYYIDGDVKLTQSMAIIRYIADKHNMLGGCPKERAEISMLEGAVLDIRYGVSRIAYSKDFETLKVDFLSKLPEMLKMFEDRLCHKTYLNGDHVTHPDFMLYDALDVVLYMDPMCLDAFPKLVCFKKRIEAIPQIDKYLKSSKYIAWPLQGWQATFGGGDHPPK
Kind of test: 1D 1H-NMR compound binding, GST negative control. The settings on record: negative control protein; result in words. The protocol:
(§3) FIGS. 22A-22F are line graphs showing a ^1H-NMR spectra confirmation of compound binding to Bcl-B. Compounds 5804000, 5954623, and 2011727 were diluted in PBS/D2O buffer to 1000 μM, then incubated with either GST (FIGS. 22A, C, E) or GST-Bcl-B (FIGS. 22B, D, F) at 0, 10 or 20 μM concentrations. FIGS. 22A-B show compound 5804000; FIGS. 22C-D show compound 5954623; and FIGS. 22E-F show the NMR spectra for the negative control compound 2011727. The most prominent peak shift for each compound is shown.
(§4) NMR experiments were performed at 25° C. on a 500 MHz Bruker Avance spectrometer (Bruker, Madison, Wis.) equipped with a 5 mm TXI probe. […] Reference solutions were then used in titration experiments with GST-Bcl-B or GST. All ^1H NMR spectra were obtained with the carrier position set to the water peak signal using WATERGATE. NMR data were processed and analyzed with MestRe Nova (MestReLab Research, Santiago de Compostela, Spain).

Test [6] addresses T1, GST-Bcl-B. Kind of test: 1D 1H-NMR compound binding, GST-Bcl-B. The arrangement: their C-terminal transmembrane domains (˜20 amino acids) were deleted to enhance protein solubility; made in house; host or cells: E. coli (BL21 Star (DE3); XL-1 Blue), pGEX-4T-1. The settings on record: result in words. The protocol: as §3, §4
In test [7] the target is T1, GST-Bcl-B. Description: FITC-Puma-BH3/GST-Bcl-B fluorescence polarization displacement assay. The settings on record: FIG. 23C; result in words. The arrangement: their C-terminal transmembrane domains (˜20 amino acids) were deleted to enhance protein solubility; made in house; host or cells: E. coli (BL21 Star (DE3); XL-1 Blue), pGEX-4T-1. Type of test: binding.
Test [8] addresses T1, GST-Bcl-B. Description: FITC-Bim-BH3/GST-Bcl-B fluorescence polarization displacement assay. Type of test: binding. More on the design: their C-terminal transmembrane domains (˜20 amino acids) were deleted to enhance protein solubility; made in house; host or cells: E. coli (BL21 Star (DE3); XL-1 Blue), pGEX-4T-1. The settings on record: FIG. 23D; result in words.
The test system of test [9] is HeLa Tet-On (HTO1) cells. Description: Cell viability (ATPlite) in control HeLa Tet-On cells. Type of test: cell-based. The conditions noted are these: cells do not express Bcl-B; result in words. The protocol: as §1, §2
Test [10] concerns the target GST-Bfl-1 ΔTM [GST: P08515]. Kind of test: Bfl-1 FPA plate, well F12: FITC-BH3 and GST-Bfl-1 without compound.
The target of test [11] is T3, GST (glutathione S-transferase control protein) (UniProt P08515 1-218 = GST).
T3 construct: Negative control protein; also called control GST protein
T3 sequence (P08515 whole entry): as above
Description: fluorescence polarization, 5 nM FITC-Bid BH3 with various concentrations of GST.

For test [12], the target named is GST-Bfl-1 ΔTM [GST: P08515]. Kind of test: Bfl-1 FPA plate, well A12: FITC-BH3 and GST-Bfl-1 without compound (peptide-alone wells 43-52 mP).
The target of test [13] is GST-Bfl-1 ΔTM [GST: P08515]. Description: Bfl-1 FPA plate, well B12: FITC-BH3 and GST-Bfl-1 without compound.
In test [14] the target is GST-Bfl-1 ΔTM [GST: P08515]. Kind of test: Bfl-1 FPA plate, well D12: FITC-BH3 and GST-Bfl-1 without compound.
The target in test [15] is GST-Bfl-1 ΔTM [GST: P08515]. Kind of test: Bfl-1 FPA plate, well C12: FITC-BH3 and GST-Bfl-1 without compound.
Test [16] deals with GST-Bfl-1 ΔTM [GST: P08515]. Kind of test: Bfl-1 FPA plate, well E12: FITC-BH3 and GST-Bfl-1 without compound.
The target of test [17] is GST-Bfl-1 ΔTM [GST: P08515]. Description: Bfl-1 FPA plate, well H12: FITC-BH3 and GST-Bfl-1 without compound.
Test [18] deals with GST-Bfl-1 ΔTM [GST: P08515]. Description: Bfl-1 FPA plate, well G12: FITC-BH3 and GST-Bfl-1 without compound.
The target in test [19] is GST-Bcl-B ΔTM [GST: P08515]. Description: fluorescence polarization binding curves.
Test [20] concerns the target GST-Bcl-B ΔTM [GST: P08515]. Description: fluorescence polarization, 20 nM FITC-TR3-r8 with increasing GST-Bcl-B, HEPES/β-glycerophosphate buffer.
In test [21] the target is GST-Bcl-B ΔTM [GST: P08515]. Kind of test: fluorescence polarization, 20 nM FITC-TR3-r8 with increasing GST-Bcl-B.
The target of test [22] is GST-Bcl-2 ΔTM [GST: P08515]. Description: fluorescence polarization, direct binding to GST-Bcl-2.

Chain of GST-Bcl-2 (P10415 1-218 limits assumed): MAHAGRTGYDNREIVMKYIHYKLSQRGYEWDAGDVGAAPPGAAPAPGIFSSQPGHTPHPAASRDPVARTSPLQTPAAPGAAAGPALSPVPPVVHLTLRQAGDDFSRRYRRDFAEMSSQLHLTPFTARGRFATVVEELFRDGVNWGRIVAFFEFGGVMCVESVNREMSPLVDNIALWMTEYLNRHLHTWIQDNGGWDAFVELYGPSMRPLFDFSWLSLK

Take `O=C(O)Cc1c[nH]c2ccc(O)cc12` [Compound 5106705]: in [1], the “Bcl-B H Coefficient” value was determined as 3.385. The IC50 in test [2] is 9.83 µM and 9.78 µM; in test [3], 7.88 µM and 7.84 µM.

Turning to `O=S(=O)(O)c1cccc2cccc(Nc3ccccc3)c12` [Compound 5255876], the results for the IC50 in [1] (Bcl-B IC50 (g/L)), in test [1] (Bcl-B IC50 (uM)) and in [2] were 2.94 µM, 2.95 µM and 12.6 µM, respectively. In test [1], the “Bcl-B H Coefficient” value is 2.628.

As a reminder, the EC50 is the concentration needed to bring the measured effect to its halfway point. Low readings indicate an effect from little substance, high ones a need for much substance. On to `Cc1cc(C)nc(NC(=N)Nc2cccc(N)c2)n1` [Compound 5804000], for which the IC50 in [4] (in the absence of Bcl-B (without doxycycline)) is approximately 148 µM; in test [4] (in the presence of Bcl-B (with doxycycline)), approximately 226 µM; in [3] it was 11.3 µM. Moreover, the concentration for a half-maximal effect (EC50) in test [1] worked out at 5.6 µM. In [1], the “Bcl-B H Coefficient” value came out at 1.599. The “binding to GST by 1D-NMR” value in test [5] is “did not bind to GST”. Further, the “binding to GST-Bcl-B by 1D-NMR” value in [6] is “bound to GST-Bcl-B in a concentration dependent manner”. For the same molecule, the “displacement of FITC-Puma-BH3 from GST-Bcl-B” value in test [7] is listed as “did not”. Moreover, in test [8], the “displacement of FITC-Bim-BH3 from GST-Bcl-B” value was “did not”.

For the molecule `Cc1ccc(C)n1-c1ccc(Br)cc1C(=O)O` [Compound 5954623], in test [1], the midpoint of the response, the EC50, lay at 2.1 µM and the “Bcl-B H Coefficient” value is recorded as 1.233. The “binding to GST by 1D-NMR” value in [5] is on record as “did not bind to GST”. The “binding to GST-Bcl-B by 1D-NMR” value in test [6] was “bound to GST-Bcl-B in a concentration dependent manner”. In addition, the “displacement of FITC-Puma-BH3 from GST-Bcl-B” value in test [7] is recorded as “displaced FITC-Puma-BH3”. For the same molecule, the IC50 in test [3] is 15.6 µM and 16.3 µM. For the same molecule, the “displacement of FITC-Bim-BH3 from GST-Bcl-B” value in [8] was “displaced FITC-Bim-BH3”.

With `CN[C@@H]1C[C@H]2O[C@@](C)([C@@H]1OC)n1c3ccccc3c3c4c(c5c6ccccc6n2c5c31)C(=O)NC4` [staurosporine], the “effect of doxycycline-induced Bcl-B expression on compound-induced cell death” value in test [4] (result in words) was “more resistant to staurosporine-induced cell death”. In addition, the “effect of doxycycline on compound-induced cell death in control cells” value in [9] is recorded as “the same level of staurosporine-induced cell death whether or not doxycycline was added”.

For the molecule {FITC-Ahx}-EDIIRNIARHLAQVGDSMDR-NH2 (also called FITC-BH3 peptide; FITC-BH3) [FITC-Bid BH3 peptide], the fluorescence polarization (mP) worked out at 163 mP in [10]; 148 mP in test [12]; 160 mP in test [13]; 158 mP in [14]; 166 mP in [15]; 157 mP in [16]. The figures for the fluorescence polarization (mP) in test [17] and in test [18] were 163 mP and 155 mP, respectively. In test [11], the binding result is given as “no binding”.

The Kd is the constant that tells how readily two partners part at equilibrium. In the case of {FITC-Ahx}-FSRSLHSLLG[Ahx][dR][dR][dR][dR][dR][dR][dR][dR] [FITC-TR3-9-r8], the fold increase of affinity in HβG buffer against PBS buffer in [19] fell in the range of 5 to 10 fold. The Kd in test [20] is 0.02 µM; in [21], 0.02 µM; in test [22], less than 0.1 µM.
